Source: patent publication US20230000842A1, “METHODS OF TREATING CARTILAGE DISORDERS THROUGH INHIBITION OF CLK AND DYRK” (SAMUMED, LLC, priority 2019, published 2023)

What was measured:
[1] = biological target: CLK3 kinase (Homo sapiens, UniProt P49761); test: CLK3 kinase activity assay (Z-lyte FRET); type: biochemical; conditions: Z-lyte Ser/Thr 18 peptide, 156 μM ATP, 1 h at room temperature;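 also: kinase activity read as coumarin/fluorescein emission ratio by FRET, unphosphorylated peptide as 0% and phosphorylated peptide as 100% control, values from non-linear regression of dose-response curves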
Chain of CLK3 kinase (P49761 whole entry): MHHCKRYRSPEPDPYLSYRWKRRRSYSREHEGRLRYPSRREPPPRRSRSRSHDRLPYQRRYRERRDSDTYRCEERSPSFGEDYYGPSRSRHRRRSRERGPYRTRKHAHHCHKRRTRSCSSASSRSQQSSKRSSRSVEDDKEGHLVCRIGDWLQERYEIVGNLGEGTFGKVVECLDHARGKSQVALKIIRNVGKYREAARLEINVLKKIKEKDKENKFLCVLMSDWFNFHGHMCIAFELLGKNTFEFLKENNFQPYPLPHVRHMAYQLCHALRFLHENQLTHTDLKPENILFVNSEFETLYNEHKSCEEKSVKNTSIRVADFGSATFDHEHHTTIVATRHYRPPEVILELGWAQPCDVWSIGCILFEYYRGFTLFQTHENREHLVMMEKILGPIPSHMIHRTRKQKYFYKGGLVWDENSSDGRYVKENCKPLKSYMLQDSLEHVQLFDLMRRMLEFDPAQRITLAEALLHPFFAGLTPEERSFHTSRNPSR

[2] = system: primary human mesenchymal stem cells (hMSCs); test: Chondrogenesis screening using primary human mesenchymal stem cells; type: cell-based; conditions: Homo sapiens, Mesenchymal stem cells, hMSC chondrogenesis; for EC50: concentration required to induce 50% levels of chondrogenesis with TGF-β3 as positive control, read-out: Conc (nM) of 50% TGF-β3 activity; for Emax: maximum activity relative to TGF-β3 (10 ng/mL) positive control, read-out: Max. Activity as % TGF-β3 activity
How it was run: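 Derived values are EC50 for 50% chondrogenesis, maximal activity and the dose giving it. These come from nodule area in passage 3–6 primary hMSCs, expressed as fold change over the mean of 3 same-plate DMSO wells, 2–3 replicates per concentration. TGF-β3 served as positive control.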

[3] = system: Wnt pathway activity (SW480 colon carcinoma cells stably expressing the Sp5-Luc reporter); test: Wnt pathway activity screening assay (Sp5-Luc reporter gene assay); conditions: Homo sapiens, SW480, Table 4; SW480 cells stably expressing Sp5-Luc reporter, 10-point dose-response from 10 μM, 36 to 48 hours
Procedure: The screening assay for Wnt pathway activity is described as follows.
SW480 colon carcinoma cells were transduced with a lentiviral vector expressing luciferase with a human Sp5 promoter consisting of a sequence of eight TCF/LEF binding sites. […] These stably transduced SW480 cells were expanded in cell culture and used for all further screening activities. Each compound was dissolved in DMSO as a 10 mM stock and used to prepare compound source plates. Serial dilution (1:3, 10-point dose-response curves starting from 10 μM) and compound transfer was performed using the ECHO 550 (Labcyte, Sunnyvale, Calif.) into 384-well white solid bottom assay plates (Greiner Bio-One) with appropriate DMSO backfill for a final DMSO concentration of 0.1%. […] Following incubation, 15 μl of BriteLite Plus luminescence reagent (Perkin Elmer) was added to each well of the 384-well assay plates. The plates were placed on an orbital shaker for 2 min and then luminescence was quantified using the Envision (Perkin Elmer) plate reader.

[4] = biological target: CLK2 kinase (Homo sapiens, UniProt P49760); test: CLK2 kinase activity assay (Z-lyte FRET); type: biochemical; conditions: Z-lyte Ser/Thr 6 peptide, 60 μM ATP, 1 h at room temperature;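 also: FRET read-out as coumarin to fluorescein emission ratio, unphosphorylated peptide as 0% and phosphorylated peptide as 100% controls, duplicate reactions, non-linear regression fit of dose-response curves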
Chain of CLK2 kinase (P49760 whole entry): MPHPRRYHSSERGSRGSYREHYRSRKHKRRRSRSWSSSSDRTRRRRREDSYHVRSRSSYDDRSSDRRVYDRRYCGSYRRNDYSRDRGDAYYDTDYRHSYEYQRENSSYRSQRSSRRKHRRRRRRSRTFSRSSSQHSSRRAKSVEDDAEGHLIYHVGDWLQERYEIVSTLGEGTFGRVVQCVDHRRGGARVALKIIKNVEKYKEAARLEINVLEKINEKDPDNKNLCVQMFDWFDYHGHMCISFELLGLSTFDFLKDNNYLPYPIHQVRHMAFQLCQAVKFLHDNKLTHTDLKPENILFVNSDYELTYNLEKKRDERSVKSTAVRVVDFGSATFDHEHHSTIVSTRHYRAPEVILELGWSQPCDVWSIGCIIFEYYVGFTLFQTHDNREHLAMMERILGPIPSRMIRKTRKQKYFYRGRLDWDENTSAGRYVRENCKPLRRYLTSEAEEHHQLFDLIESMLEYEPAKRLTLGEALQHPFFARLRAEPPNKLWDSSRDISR

Row | Compound | EC50 [1] | EC50 [2] | Emax [2] | EC50 [3] | EC50 [4]
1 | c1cncc(-c2ccc3[nH]nc(-c4nc5c(-c6ccoc6)cncc5[nH]4)c3c2)c1 [compound 229] | 44 nM | 100 nM | 149% | 45.4 nM | 2 nM
2 | CCCC(=O)Nc1cncc(-c2cnc3[nH]nc(-c4nc5c(-c6ccoc6)cccc5[nH]4)c3c2)c1 [compound 230] | 87 nM | 100 nM | 111% | 63 nM | 4 nM
3 | CCCCC(=O)Nc1cncc(-c2ccc3[nH]nc(-c4nc5c(-c6ccoc6)cncc5[nH]4)c3n2)c1 [compound 231] | 361 nM | 10 nM | 73.6% | > 10000 nM | 3 nM
4 | CC(C)(C)C(=O)Nc1cncc(-c2cnc3[nH]nc(-c4nc5c(-c6ccoc6)cncc5[nH]4)c3c2)c1 [compound 232] | 143 nM | 30 nM | 144% | 70 nM | 5 nM
5 | CC(C)CC(=O)Nc1cncc(-c2cc3c(-c4nc5c(-c6ccoc6)cccc5[nH]4)n[nH]c3cn2)c1 [compound 233] | 521 nM | – | 58% | 55.3 nM | 8 nM
6 | O=C(Cc1ccccc1)Nc1cncc(-c2ccc3[nH]nc(-c4nc5c(-c6ccoc6)cncc5[nH]4)c3c2)c1 [compound 234] | 120 nM | 30 nM | 102% | 33 nM | 6 nM
7 | O=C(Nc1cncc(-c2cnc3[nH]nc(-c4nc5c(-c6ccoc6)cncc5[nH]4)c3c2)c1)c1ccccc1 [compound 235] | 2630 nM | 100 nM | 110% | 51 nM | 8 nM
8 | CC(C)Nc1cncc(-c2ccc3[nH]nc(-c4nc5c(-c6ccoc6)nccc5[nH]4)c3c2)c1 [compound 236] | 205 nM | 30 nM | 90.2% | 43.5 nM | 19 nM
9 | CC(C)Nc1cncc(-c2cnc3[nH]nc(-c4nc5c(-c6ccoc6)nccc5[nH]4)c3c2)c1 [compound 237] | 134 nM | 30 nM | 72% | 52.6 nM | 7 nM
10 | CC(C)Nc1cncc(-c2ccc3[nH]nc(-c4nc5c(-c6ccoc6)nccc5[nH]4)c3n2)c1 [compound 238] | 230 nM | 30 nM | 76.2% | 297 nM | 2 nM
11 | CC(C)Nc1cncc(-c2ccc3[nH]nc(-c4nc5c(-c6ccoc6)cncc5[nH]4)c3n2)c1 [compound 239] | 87 nM | 30 nM | 75.3% | 597 nM | 2 nM
12 | CC(C)Nc1cncc(-c2ccc3[nH]nc(-c4nc5c(-c6ccoc6)ccnc5[nH]4)c3n2)c1 [compound 240] | 113 nM | 100 nM | 64.2% | 298 nM | 2 nM
13 | Cc1ccncc1-c1ccc2[nH]nc(-c3nc4c(-c5ccsc5)nccc4[nH]3)c2c1 [compound 242] | 76 nM | 10 nM | 156% | 18.9 nM | 15 nM
14 | CCC(=O)Nc1cncc(-c2cnc3[nH]nc(-c4nc5c(-c6ccsc6)cccc5[nH]4)c3c2)c1 [compound 243] | 62 nM | 100 nM | 167% | 10 nM | 5 nM
15 | CCC(=O)Nc1cncc(-c2ccc3[nH]nc(-c4nc5c(-c6ccsc6)cncc5[nH]4)c3c2)c1 [compound 244] | 64 nM | 30 nM | 203% | 2 nM | 16 nM
16 | CCCC(=O)Nc1cncc(-c2ccc3[nH]nc(-c4nc5c(-c6ccsc6)ccnc5[nH]4)c3c2)c1 [compound 245] | 9840 nM | 30 nM | 72.6% | 7.7 nM | 34 nM
17 | CCCC(=O)Nc1cncc(-c2ccc3[nH]nc(-c4nc5c(-c6ccsc6)cncc5[nH]4)c3c2)c1 [compound 246] | 21 nM | – | 42% | 61.5 nM | 3 nM
18 | CCCC(=O)Nc1cncc(-c2ccc3[nH]nc(-c4nc5c(-c6ccsc6)cncc5[nH]4)c3n2)c1 [compound 247] | 48 nM | 20.6 nM | 58.4% | 3640 nM | 2 nM
19 | CCNCc1cncc(-c2cc3c(-c4nc5c(-c6ccsc6)nccc5[nH]4)n[nH]c3cn2)c1 [compound 249] | 30 nM | 30 nM | 67.7% | 59.3 nM | 1 nM
20 | CN(C)Cc1cncc(-c2cnc3[nH]nc(-c4nc5c(-c6ccsc6)cncc5[nH]4)c3c2)c1 [compound 252] | 118 nM | – | 91.3% | 57 nM | 2 nM

Row | Compound | EC50 [1] | EC50 [2] | Emax [2] | EC50 [3] | EC50 [4]
21 | FC1(F)CCN(Cc2cncc(-c3ccc4[nH]nc(-c5nc6c(-c7ccsc7)cncc6[nH]5)c4c3)c2)C1 [compound 253] | 26 nM | – | 81.3% | 1.8 nM | 7 nM
22 | c1cncc(-c2cnc3[nH]nc(-c4nc5c(-c6cccs6)cccc5[nH]4)c3c2)c1 [compound 254] | 43 nM | – | 41.6% | 12 nM | 3 nM
23 | CCC(=O)Nc1cncc(-c2cnc3[nH]nc(-c4nc5c(-c6cccs6)cncc5[nH]4)c3c2)c1 [compound 255] | 62 nM | – | 69.8% | 4 nM | 3 nM
24 | CC(C)CC(=O)Nc1cncc(-c2ccc3[nH]nc(-c4nc5c(-c6cccs6)cncc5[nH]4)c3c2)c1 [compound 256] | 62 nM | – | 53.3% | 0.1 nM | 9 nM
25 | O=C(Nc1cncc(-c2cc3c(-c4nc5c(-c6cccs6)nccc5[nH]4)n[nH]c3cn2)c1)C1CC1 [compound 257] | 115 nM | – | 68.3% | 22.2 nM | 7 nM
26 | CN(C)c1cncc(-c2ccc3[nH]nc(-c4nc5c(-c6cccs6)cncc5[nH]4)c3n2)c1 [compound 258] | 83 nM | 10 nM | 65.6% | 710 nM | 2 nM
27 | c1csc(-c2cncc3[nH]c(-c4n[nH]c5ncc(-c6cncc(CNCC7CCCC7)c6)cc45)nc23)c1 [compound 259] | 167 nM | – | 74.6% | 98 nM | 4 nM
28 | CN(C)CCOc1cncc(-c2ccc3[nH]nc(-c4nc5c(-c6cccs6)cccc5[nH]4)c3n2)c1 [compound 261] | 150 nM | 10 nM | 142% | 3110 nM | 2 nM
29 | CC(C)(C)C(=O)Nc1cncc(-c2ccc3[nH]nc(-c4nc5c(-c6ccc(F)s6)ccnc5[nH]4)c3c2)c1 [compound 262] | 754 nM | 30 nM | 120% | 16.7 nM | 85 nM
30 | CC(C)(C)C(=O)Nc1cncc(-c2cc3c(-c4nc5c(-c6ccc(F)s6)nccc5[nH]4)n[nH]c3cn2)c1 [compound 263] | 358 nM | – | 40.9% | 35.3 nM | 18 nM
31 | CC(C)(C)C(=O)Nc1cncc(-c2ccc3[nH]nc(-c4nc5c(-c6ccc(Cl)s6)cncc5[nH]4)c3n2)c1 [compound 265] | 91 nM | 10 nM | 84.7% | 551 nM | 8 nM
32 | CC(C)CC(=O)Nc1cncc(-c2ccc3[nH]nc(-c4nc5c(-c6ccc(Cl)s6)cncc5[nH]4)c3n2)c1 [compound 266] | 67 nM | 10 nM | 60.6% | 1480 nM | 15 nM
33 | O=C(Nc1cncc(-c2ccc3[nH]nc(-c4nc5c(-c6ccc(Cl)s6)nccc5[nH]4)c3n2)c1)C1CCC1 [compound 267] | 9840 nM | 30 nM | 60.2% | 823 nM | 8 nM
34 | O=C(Nc1cncc(-c2ccc3[nH]nc(-c4nc5c(-c6ccc(Cl)s6)cncc5[nH]4)c3n2)c1)C1CCC1 [compound 268] | 145 nM | 30 nM | 67.9% | 800 nM | 12 nM
35 | O=C(Nc1cncc(-c2ccc3[nH]nc(-c4nc5c(-c6ccc(Cl)s6)ccnc5[nH]4)c3n2)c1)C1CCC1 [compound 269] | 183 nM | 10 nM | 102% | 354 nM | 12 nM
36 | Clc1ccc(-c2cncc3[nH]c(-c4n[nH]c5ccc(-c6cncc(CN7CCCC7)c6)nc45)nc23)s1 [compound 270] | 88 nM | 10 nM | 62% | 3330 nM | 4 nM
37 | Cc1ccc(-c2cccc3[nH]c(-c4n[nH]c5ccc(-c6cncc(N)c6)nc45)nc23)s1 [compound 271] | 34 nM | 10 nM | 87.9% | 66.3 nM | 2 nM
38 | Cc1ccc(-c2nccc3[nH]c(-c4n[nH]c5ccc(-c6cncc(N)c6)cc45)nc23)s1 [compound 272] | 52 nM | 2700 nM | 163% | 1.9 nM | 5 nM
39 | Cc1ccc(-c2nccc3[nH]c(-c4n[nH]c5cnc(-c6cncc(N)c6)cc45)nc23)s1 [compound 273] | 29 nM | 10 nM | 259% | 9.2 nM | 4 nM
